Measured values published in patent US9115101B2 (Genentech, Inc., priority 2012, dated 2015).
pIC50: −log10 of the molar value. Like-named read-outs stand apart in the source and are kept apart here.

Biological target: T1, RORc ligand binding domain (Homo sapiens, UniProt P51449)
T1 construct: host or cells: E. coli
T1 sequence (P51449 269-508 limits assumed): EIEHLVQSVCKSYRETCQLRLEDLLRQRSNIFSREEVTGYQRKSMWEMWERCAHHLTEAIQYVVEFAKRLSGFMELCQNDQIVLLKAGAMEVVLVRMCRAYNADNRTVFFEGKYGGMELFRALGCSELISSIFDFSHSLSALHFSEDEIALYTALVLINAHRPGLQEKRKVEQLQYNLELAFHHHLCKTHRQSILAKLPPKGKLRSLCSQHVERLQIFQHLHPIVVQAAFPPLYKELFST
Test: In Vitro RORc Ligand Binding Assay (25-[3H]hydroxycholesterol radioligand filtration)
Settings: read-out: RORc IC50

[1] = In Vitro RORc Ligand Binding Assay, Table 4

Row | Structure (SMILES) | pIC50 [1] | pIC50
1 | C[C@H]1CCC(c2ccccc2)S(=O)(=O)N1Cc1ccc(C(=O)N2CCCC2CO)cc1 (stereo partly drawn) [Example 290, (2-Hydroxymethyl-pyrrolidin-1-yl)-[4-((3S)-methyl-1,1-dioxo-6-phenyl-[1,2]thiazinan-2-ylmethyl)-phenyl]-methanone] | 5.82 | –
2 | C[C@H]1CCC(c2ccccc2)S(=O)(=O)N1Cc1ccc(N2CCC(n3ncnn3)CC2)cc1F (single isomer, unassigned) [Example 244] | 7.62 | –
3 | C[C@H]1CCC(c2ccccc2)S(=O)(=O)N1Cc1ccc(N2CCn3cncc3C2)cc1F (single isomer, unassigned) [Example 154] | 6.84 | –
4 | C[C@H]1CCC(c2ccccc2)S(=O)(=O)N1Cc1ccc(N2CCN(c3ncncn3)CC2)cc1F (stereo partly drawn) [Example 442, 2-{4-[3-Fluoro-4-((3S)-methyl-1,1-dioxo-6-phenyl-[1,2]thiazinan-2-ylmethyl)-phenyl]-piperazin-1-yl}-[1,3,5]triazine] | – | 7.43
5 | CC(=O)N1CCN(c2ccc(CN3C(C)(C)CCC(c4ccccc4)S3(=O)=O)c(F)c2)CC1 (single isomer, unassigned) [Example 13, 1-{4-[4-(3,3-Dimethyl-1,1-dioxo-6-phenyl-[1,2]thiazinan-2-ylmethyl)-3-fluoro-phenyl]-piperazin-1-yl}-ethanone] | 6.85 | –
6 | CNC(=O)C1CN(C(=O)c2ccc(CN3[C@@H](C)CCC(c4ccccc4)S3(=O)=O)cc2)CCO1 (stereo partly drawn) [Example 299, 4-[4-((3S)-Methyl-1,1-dioxo-6-phenyl-[1,2]thiazinan-2-ylmethyl)-benzoyl]-morpholine-2-carboxylic acid methylamide] | 5.31 | –
7 | CC(=O)N1CCN(c2ccc(CN3C[C@@H](C)OCC(c4ccccc4)S3(=O)=O)c(F)c2)CC1 (single isomer, unassigned) [Example 30] | 6.97 | –
8 | C[C@H]1CCC(c2ccccc2)S(=O)(=O)N1Cc1ccc(N2CCn3c(cnc3C(N)=O)C2)cc1F (stereo partly drawn) [Example 403, 7-[3-Fluoro-4-((3S)-methyl-1,1-dioxo-6-phenyl-[1,2]thiazinan-2-ylmethyl)-phenyl]-5,6,7,8-tetrahydro-imidazo[1,5-a]pyrazine-3-carboxylic acid amide] | – | 6.46
9 | COC(=O)C1(n2cnnc2)CCN(c2ccc(CN3[C@@H](C)CCC(c4ccccc4)S3(=O)=O)c(F)c2)CC1 (stereo partly drawn) [Example 427, 1-[3-Fluoro-4-((3S)-methyl-1,1-dioxo-6-phenyl-[1,2]thiazinan-2-ylmethyl)-phenyl]-4-[1,2,4]triazol-4-yl-piperidine-4-carboxylic acid methyl ester] | – | 6.35
10 | C[C@H]1CCC(c2ccccc2)S(=O)(=O)N1Cc1ccc(C(=O)NC2CCC(O)C2)cc1 (single isomer, unassigned) [Example 411] | – | 5.45
11 | CC(=O)N1CCCN(C(=O)c2ccc(CN3[C@@H](C)CCC(c4ccccc4)S3(=O)=O)cc2)CC1 (stereo partly drawn) [Example 285, 1-{4-[4-((3S)-Methyl-1,1-dioxo-6-phenyl-[1,2]thiazinan-2-ylmethyl)-benzoyl]-[1,4]diazepan-1-yl}-ethanone] | 5.40 | –
12 | CC(=O)N1CCN(c2ccc(CN3CCCCC(c4ccccc4)S3(=O)=O)c(F)c2)[C@@H](C)C1 (single isomer, unassigned) [Example 341, 1-{4-[4-(1,1-Dioxo-7-phenyl-[1,2]thiazepan-2-ylmethyl)-3-fluoro-phenyl]-3-methyl-piperazin-1-yl}-ethanone] | 7.59 | –
13 | CS(=O)(=O)N1CCC(Nc2ccc(CN3CC4(CC4)CC(c4ccccc4)S3(=O)=O)c(F)c2)CC1 (single isomer, unassigned) [Example 253, 5-(2-fluoro-4-((1-(methylsulfonyl)piperidin-4-yl)amino)benzyl)-7-phenyl-6-thia-5-azaspiro[2.5]octane 6,6-dioxide] | 8.15 | –
14 | CC[C@H]1CCC(c2ccccc2)S(=O)(=O)N1Cc1ccc(N2CCC(n3cnnc3)CC2)cc1F (single isomer, unassigned) [Example 228] | 7.68 | –
15 | O=c1[nH]nc(C2CCN(c3ccc(CN4CCCCC(c5ccccc5)S4(=O)=O)cc3)CC2)o1 (single isomer, unassigned) [Example 343, 5-{1-[4-(1,1-Dioxo-7-phenyl-[1,2]thiazepan-2-ylmethyl)-phenyl]-piperidin-4-yl}-3H-[1,3,4]oxadiazol-2-one] | 6.35 | –

Next, values leading:

Row | pIC50 [1] | pIC50 | Structure (SMILES)
16 | 7.40 | – | C[C@H](O)C(=O)N1C[C@H]2C[C@@H]1CN2c1ccc(CN2[C@@H](C)CCC(c3ccccc3)S2(=O)=O)c(F)c1 (single isomer, unassigned) [Example 183]
17 | 6.09 | – | C[C@H]1CCC(c2ccccc2)S(=O)(=O)N1Cc1ccc(N2CCCNCC2)cc1F (single isomer, unassigned) [Example 88]
18 | 6.81 | – | CC(=O)N1CCN(c2ccc(CN3[C@@H](C)CCC(c4ccccc4)S3(=O)=O)c(F)c2)C[C@@H]1C(N)=O (stereo partly drawn) [Example 375, (R)-1-Acetyl-4-[3-fluoro-4-((3S)-methyl-1,1-dioxo-6-phenyl-[1,2]thiazinan-2-ylmethyl)-phenyl]-piperazine-2-carboxylic acid amide]
19 | 8.52 | – | C[C@H]1CCC(c2ccccc2)S(=O)(=O)N1Cc1ccc(N2CCC(c3cn[nH]c3)CC2)cc1F (single isomer, unassigned) [Example 243]
20 | 8.05 | – | C[C@H]1CCC(c2ccccc2)S(=O)(=O)N1Cc1ccc(N2CCC(c3cnn[nH]3)CC2)cc1F (single isomer, unassigned) [Example 254]
21 | 7.59 | – | CC(=O)N1CCN(c2ccc(CN3[C@H](C)CCC(c4ccccc4)S3(=O)=O)c(F)c2)CC1 (single isomer, unassigned) [Example 20]
22 | 7.74 | – | C[C@H]1CCC(c2ccccc2)S(=O)(=O)N1Cc1ccc(N2CCC(CS(C)(=O)=O)CC2)cc1F (single isomer, unassigned) [Example 105]
23 | 7.46 | – | C[C@H]1CCC(c2ccccc2)S(=O)(=O)N1Cc1ccc(N[C@H]2CC[C@@H](C#N)CC2)cc1F (single isomer, unassigned) [Example 110]
24 | – | 6.91 | C[C@H]1CCC(c2ccccc2)S(=O)(=O)N1Cc1ccc(NC(=O)CC2CCOCC2)cc1F (stereo partly drawn) [Example 455, N-[3-Fluoro-4-((3S)-methyl-1,1-dioxo-6-phenyl-[1,2]thiazinan-2-ylmethyl)-phenyl]-2-(tetrahydro-pyran-4-yl)-acetamide]
25 | 6.56 | – | C[C@H]1CCC(c2ccccc2)S(=O)(=O)N1Cc1ccc(N[C@H]2CC[C@H](n3cnnc3)CC2)cc1F (stereo partly drawn) [Example 232, [3-Fluoro-4-((3S)-methyl-1,1-dioxo-6-phenyl-[1,2]thiazinan-2-ylmethyl)-phenyl]-(4-[1,2,4]triazol-4-yl-cyclohexyl)-amine]
26 | 6.78 | – | COCC(=O)N1CCN(c2ccc(CN3[C@@H](C)CCC(c4ccccc4)S3(=O)=O)c(F)c2)CC1 (single isomer, unassigned) [Example 75]
27 | 5.55 | – | CC(=O)N1CCN(c2ccc(CN3[C@H](C)CCC(c4ccccc4)S3(=O)=O)c(F)c2)CC1 (single isomer, unassigned) [Example 19]
28 | 7.14 | – | C[C@H]1CCC(c2ccccc2)S(=O)(=O)N1Cc1ccc(N2CCN(C=O)CC2)cc1F (stereo partly drawn) [Example 115, 4-[3-Fluoro-4-((3S)-3-methyl-1,1-dioxo-6-phenyl-[1,2]thiazinan-2-ylmethyl)-phenyl]-piperazine-1-carbaldehyde]
29 | 7.39 | – | C[C@H]1CCC(c2ccccc2)S(=O)(=O)N1Cc1ccc(N2CCN(C(=O)CC#N)CC2)cc1F (single isomer, unassigned) [Example 71]
